The nature of one series: Solubility. The series is classed as physicochemical.
For the next series, the system named is RIF-1 tumors. Nature of the series: Murine tumor growth delay model (RIF-1 tumors in C3H mice). The following applies: same doses, IP; for Median (days to 4×): median tumor volume quadrupling time; for T/C (tumor growth delay ratio): ratio of 4× growth times of treated and untreated control tumors; for Delay (tumor growth delay): versus untreated control.

Protocol for RIF-1 tumors: C3H mice were inoculated subcutaneously in the flank with 2×10^5 radiation-induced fibrosarcoma cells (RIF-1) to produce experimental tumors. When tumors reached ˜100 mm^3, test compounds (100 uL) were administered intraperitoneally (IP).
Single compound groups received either amonafide (60 mg/kg), caffeine (75 mg/kg), or nicotinamide (1000 mg/kg).
Combination groups received amonafide (60 mg/kg), in combination with either caffeine (75 mg/kg), or nicotinamide (1000 mg/kg).
All compounds were administered at the same concentration as the combination groups (amonafide (60 mg/kg), caffeine (75 mg/kg), nicotinamide (1000 mg/kg). Sequential groups included one group treated with amonafide followed by treatment with caffeine, one group treated with caffeine followed by treatment with amonafide, one group treated with amonafide followed by treatment with nicotinamide, and one group treated with nicotinamide followed by treatment with amonafide.
Four mice were used in each treatment group.
Tumors were measured 3 times a week using Vernier calipers, and tumor volume (V) was calculated according to the formula: [formula]
Where D1-3 are perpendicular diameters measured in millimeters (mm).
Tumor volume quadrupling time was defined as the time (days) for treated and untreated tumors to grow to four times (4×) their initial treatment volume. Tumor growth delay ratio (T/C) was defined as the ratio of 4× growth times of treated (T) and untreated control (C) tumors.

Regarding `CN(C)CCN1C(=O)c2cccc3cc(N)cc(c23)C1=O` [Amonafide, 5-amino-2-[(dimethylamine)ethyl]-1H-benz[de-]isoquinoline-1,3-(2H)-dione], the “Solubility in water compared to monohydrochloride salt” value in the series “Solubility” was “more soluble in water”. Further, the Solubility in saline result in the series “Solubility” (at therapeutic concentrations) is recorded as “soluble in saline at therapeutic concentrations”. Moreover, in the series on RIF-1 tumors, the “Median (days to 4×)” value turned out to be 7.5, the “T/C (tumor growth delay ratio)” value worked out at 1.6 and the “Delay (tumor growth delay)” value is listed as 2.97.
Consider `Cn1c(=O)c2c(ncn2C)n(C)c1=O` [Caffeine, caffeine], for which, in the series on RIF-1 tumors, the “Median (days to 4×)” value was 5.5, the “T/C (tumor growth delay ratio)” value is 1.2 and the “Delay (tumor growth delay)” value was 1.01.
On the same counts, the results for `NC(=O)c1cccnc1` [Nicotinamide, nicotinamide] are 5.3, 1.1 and 0.76.

Source of the values: patent publication US20050288310A1, “Methods of treating cellular proliferative disease using naphthalimide and PARP-1 inhibitors” (priority 2004, published 2005).
